Assay results as given in US10973788B2, “Treatment of cancer with specific RXR agonists” (Io Therapeutics, Inc., priority 2005, dated 2021).

How the values were obtained:
[1] = molecular target: RXR β (Homo sapiens, UniProt P28702); assay: cell-based; conditions: read-out: RXR EC90 β
Method: (§1) RXR EC90:RAR EC10 ratio is calculated by taking the inverse of the RXR EC90 α, β and γ values (nM) divided by the corresponding inverse of the RAR EC10 α, β and γ values (nM). For example, the RXR EC90:RAR EC10 ratio is determined by dividing RAR EC10 by RXR EC90 for α, β and γ. Thus, a value is obtained for all three receptors, referred to herein as (RXR EC90:RAR EC10 ratio)α, (RXR EC90:RAR EC10 ratio)β and (RXR EC90:RAR EC10 ratio)γ for α β and γ, respectively. For example, (RXR EC90:RAR EC10 ratio), is determined by dividing RAR EC10α by RXRα EC90. The mean RXR EC90:RAR EC10 ratio is the average of all three values. An example is provided below in Tables 1A and 1B.

[2] = system: NSCLC; conditions: pivotal Phase III; cited from earlier work
[3] = system: breast cancer; assay: Animal models of breast cancer; format: in vivo
[4] = molecular target: RAR γ (Homo sapiens, UniProt P13631)
Method: as §1

[5] = molecular target: RAR β (Homo sapiens, UniProt P10826)
Method: as §1

[6] = molecular target: RAR α (Homo sapiens, UniProt P10276)
Chain of RAR α (P10276 whole entry): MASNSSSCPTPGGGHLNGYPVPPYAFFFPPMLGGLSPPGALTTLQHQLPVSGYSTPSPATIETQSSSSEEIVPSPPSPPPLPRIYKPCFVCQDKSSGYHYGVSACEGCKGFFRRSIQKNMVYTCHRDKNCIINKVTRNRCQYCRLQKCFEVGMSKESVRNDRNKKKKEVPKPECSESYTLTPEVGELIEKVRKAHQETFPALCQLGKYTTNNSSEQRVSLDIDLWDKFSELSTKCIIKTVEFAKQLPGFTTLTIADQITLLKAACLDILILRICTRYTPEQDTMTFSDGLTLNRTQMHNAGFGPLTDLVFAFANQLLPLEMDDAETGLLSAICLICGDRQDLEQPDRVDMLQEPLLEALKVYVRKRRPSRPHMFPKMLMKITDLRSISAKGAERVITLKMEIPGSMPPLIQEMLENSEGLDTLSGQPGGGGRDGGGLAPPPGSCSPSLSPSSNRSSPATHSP
Method: as §1

[7] = system: RXR; assay: RXR pan-agonist potency; format: cell-based
[8] = system: mouse lymphoma TK; assay: Mouse lymphoma TK genotoxicity assay; format: cell-based
[9] = Ames genotoxicity test
[10] = system: cell lines derived from a variety of tumor types; assay: Tumor growth inhibition in cell lines; format: cell-based
[11] = Repeated oral dose study for 4 weeks followed by recovery, rats; format: in vivo; conditions: repeated oral dose 4 weeks
[12] = Repeated oral dose study for 4 weeks followed by recovery, dogs; format: in vivo; conditions: repeated oral dose 4 weeks
[13] = system: human H292 NSCLC tumors; assay: Animal models of lung cancer (H292 NSCLC xenograft); format: in vivo, nude mice
Method: (§2) Nude mice were randomized into 4 groups of 10 animals each based on body weight and xenografted subcutaneously in the right flank with H292 cells (2×10^6 cells). Drug treatment was started immediately after xenografting and continued for 35 days (5 animals of each group) or 55 days (remaining 5 animals). […] Tumor sizes were measured periodically for 35 days (FIG. 1A). Animals #1-5 of each group were sacrificed after 35 days of treatment and gastrocnemus muscles were determined (FIG. 10). The body weights and overall appearance of animals #6 through #10 from each group were followed for an extended period (FIG. 1B and FIG. 1D). To appropriately show the overall health of these animals, pictures were taken from their tumor-free left flank on day 55 (FIG. 1D).

[14] = system: cancer-induced cachexia; assay: Models of cancer-induced cachexia; format: in vivo
Method: as §2

[15] = Rat micronucleus genotoxicity assay; format: in vivo

Chain of RXR β (P28702 whole entry): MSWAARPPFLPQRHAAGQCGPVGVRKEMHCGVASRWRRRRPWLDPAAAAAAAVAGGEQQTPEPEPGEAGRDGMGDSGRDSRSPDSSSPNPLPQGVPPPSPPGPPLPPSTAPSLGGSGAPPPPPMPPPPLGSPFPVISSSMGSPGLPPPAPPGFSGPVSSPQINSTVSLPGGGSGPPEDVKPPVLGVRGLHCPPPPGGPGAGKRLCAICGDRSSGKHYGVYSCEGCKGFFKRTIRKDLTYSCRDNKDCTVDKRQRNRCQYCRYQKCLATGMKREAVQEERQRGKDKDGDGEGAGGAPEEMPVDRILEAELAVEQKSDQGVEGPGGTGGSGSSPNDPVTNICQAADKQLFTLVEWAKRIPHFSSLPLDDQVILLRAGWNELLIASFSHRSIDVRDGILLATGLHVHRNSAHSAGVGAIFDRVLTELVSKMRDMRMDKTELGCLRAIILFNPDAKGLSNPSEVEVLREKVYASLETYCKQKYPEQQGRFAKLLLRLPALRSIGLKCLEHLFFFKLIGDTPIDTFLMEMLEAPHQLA

Structure (SMILES)	EC90 [1] [nM]	survival [2]	tumor growth inhibition [3]	RAR EC10 γ [4] [nM]	RAR EC10 β [5] [nM]	RAR EC10 α [6] [nM]	EC50 [7] [nM]	genotoxicity [8]	genotoxicity [9]	tumor growth inhibition [10]	severe toxic dose [11] [mg/m^2/d]	severe toxic dose [12]	tumor growth inhibition [13]	body weight [14]	food consumption [14]	muscle and adipose tissue [14]	survival [14]	genotoxicity [15]
C=C(c1ccc(C(=O)O)cc1)c1cc2c(cc1C)C(C)(C)CCC2(C)C [TARGRETIN ®, bexarotene]	100	did not show increased survival																
CC(/C=C/[C@@H]1C[C@]1(C)c1ccc2c(c1)C(C)(C)CCC2(C)C)=C\C(=O)O [VTP 194204, 3,7-dimethyl-6(S),7(S)-methano,7-[1,1,4,4-tetramethyl-1,2,3,4-tetrahydron-aphth-7-yl]2(E), 4(E) heptadienoic acid]			tumor growth inhibitory effects	[…]	[…]	300	[…]	No genotoxicity	No genotoxicity	tumor growth inhibitory effects	[…]	[…]	tumor growth inhibitory effects	maintained body weight	improved food consumption	prevented loss of muscle and adipose tissue	prolonged survival	No genotoxicity
